The supplement of paper PMC10307832

Columns and labels:
Test in all cases: relative viability (nuclei count vs DMSO), 5 days (fraction); higher = more cells survive
CAP-232 + Vorinostat = compound: C[C@H]([C@@H](C(=O)N)NC(=O)[C@@H]1CSSC[C@@H](C(=O)N[C@H](C(=O)N[C@@H](C(=O)N[C@H](C(=O)N1)CCCCN)CC2=CNC3=CC=CC=C32)CC4=CC=C(C=C4)O)NC(=O)[C@@H](CC5=CC=CC=C5)N)O [CAP-232] + O=C(CCCCCCC(=O)Nc1ccccc1)NO [Vorinostat] (partner 1 µM)
Summary of the method: (§1)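 Relative viability was taken as the ratio of nuclei in treated wells to nuclei in vehicle wells. Lung cancer cell lines in 1536-well plates received compounds by pin tool one day after seeding, either one drug alone or a fixed anchor-drug dose plus five library-drug doses (not always all listed) in √10 steps. Nuclei were counted on 4× images after 5 days of treatment, and values are medians of duplicate plates.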

CAP-232 + Crizotinib = compound: C[C@H]([C@@H](C(=O)N)NC(=O)[C@@H]1CSSC[C@@H](C(=O)N[C@H](C(=O)N[C@@H](C(=O)N[C@H](C(=O)N1)CCCCN)CC2=CNC3=CC=CC=C32)CC4=CC=C(C=C4)O)NC(=O)[C@@H](CC5=CC=CC=C5)N)O [CAP-232] + C[C@@H](Oc1cc(-c2cnn(C3CCNCC3)c2)cnc1N)c1c(Cl)ccc(F)c1Cl [Crizotinib] (partner 1 µM)
Summary of the method: as §1

CAP-232 + Linsitinib = compound: C[C@H]([C@@H](C(=O)N)NC(=O)[C@@H]1CSSC[C@@H](C(=O)N[C@H](C(=O)N[C@@H](C(=O)N[C@H](C(=O)N1)CCCCN)CC2=CNC3=CC=CC=C32)CC4=CC=C(C=C4)O)NC(=O)[C@@H](CC5=CC=CC=C5)N)O [CAP-232] + C[C@]1(O)C[C@@H](c2nc(-c3ccc4ccc(-c5ccccc5)nc4c3)c3c(N)nccn32)C1 [Linsitinib] (partner 1 µM)
Summary of the method: as §1

CAP-232 + Luminespib = compound: C[C@H]([C@@H](C(=O)N)NC(=O)[C@@H]1CSSC[C@@H](C(=O)N[C@H](C(=O)N[C@@H](C(=O)N[C@H](C(=O)N1)CCCCN)CC2=CNC3=CC=CC=C32)CC4=CC=C(C=C4)O)NC(=O)[C@@H](CC5=CC=CC=C5)N)O [CAP-232] + CCNC(=O)c1noc(-c2cc(C(C)C)c(O)cc2O)c1-c1ccc(CN2CCOCC2)cc1 [Luminespib] (partner 0.01 µM)
Summary of the method: as §1

CAP-232 = compound: C[C@H]([C@@H](C(=O)N)NC(=O)[C@@H]1CSSC[C@@H](C(=O)N[C@H](C(=O)N[C@@H](C(=O)N[C@H](C(=O)N1)CCCCN)CC2=CNC3=CC=CC=C32)CC4=CC=C(C=C4)O)NC(=O)[C@@H](CC5=CC=CC=C5)N)O [CAP-232]
Summary of the method: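 Acceptance criteria were a control CV below 25% and at least one doubling per plate. Lung cancer cell lines in 1536-well plates got five library-drug doses (not always all listed) √10 apart by pinning and were left 5 days with no medium change. Viability divides treated-well nuclei by vehicle-well nuclei and is the median across plates. Nuclei were counted by MetaXpress from 4× Hoechst images.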

Cell Line	relative viability (CAP-232 + Vorinostat; first compound 0.4 µM)	relative viability (CAP-232 + Vorinostat; first compound 1.265 µM)	relative viability (CAP-232 + Vorinostat; first compound 4 µM)	relative viability (CAP-232 + Vorinostat; first compound 12.65 µM)	relative viability (CAP-232 + Crizotinib; first compound 0.4 µM)	relative viability (CAP-232 + Crizotinib; first compound 1.265 µM)	relative viability (CAP-232 + Crizotinib; first compound 4 µM)	relative viability (CAP-232 + Crizotinib; first compound 12.65 µM)	relative viability (CAP-232 + Linsitinib; first compound 0.4 µM)	relative viability (CAP-232 + Linsitinib; first compound 1.265 µM)	relative viability (CAP-232 + Linsitinib; first compound 4 µM)	relative viability (CAP-232 + Linsitinib; first compound 12.65 µM)	relative viability (CAP-232 + Luminespib; first compound 0.4 µM)	relative viability (CAP-232 + Luminespib; first compound 1.265 µM)	relative viability (CAP-232 + Luminespib; first compound 4 µM)	relative viability (CAP-232 + Luminespib; first compound 12.65 µM)	relative viability (CAP-232; 0.4 µM)	relative viability (CAP-232; 1.265 µM)	relative viability (CAP-232; 4 µM)	relative viability (CAP-232; 12.65 µM)
LCLC-97TM1	0.876	0.764	1.08	0.995	0.494	0.347	0.28	0.315	0.148	0.21	0.218	0.18	0.799	0.819	0.804	0.799	1.02	0.943	0.986	0.965
LCLC-103H	0.875	0.729	0.827	0.825	1.1	0.984	0.98	1.06	1.13	1.08	1.13	0.946	1.04	0.989	0.902	1.07	1.13	0.984	1.08	0.967
LK-2	0.277	0.249	0.275	0.298	0.216	0.251	0.181	0.199	0.463	0.836	0.517	0.389	0.176	0.207	0.19	0.183	1.08	0.957	1.1	0.976
LOU-NH91	1.02	0.882	0.931	0.415	0.748	0.76	0.921	0.705	0.923	1.06	0.865	0.719	0.335	0.271	0.341	0.326	1.01	0.908	0.934	0.686
LU99A	0.533	0.492	0.589	0.533	0.486	0.652	0.513	0.561	0.52	0.504	0.506	0.533	0.333	0.267	0.182	0.246	0.969	0.919	0.986	0.984
LXF-289	0.89	0.785	0.772	0.774	0.843	0.803	0.784	0.841	1.05	0.952	0.992	0.983	0.787	0.642	0.581	0.775	1.04	1.02	1.06	0.993
NCI-H23	0.578	0.534	0.558	0.54	0.532	0.444	0.462	0.362	0.5	0.624	0.587	0.543	0.218	0.196	0.197	0.119	1.09	0.853	0.949	0.931
NCI-H322M	0.91	0.894	0.932	1.11	1.01	0.903	0.841	0.778	1.14	0.916	0.941	0.959	0.686	0.832	0.809	0.565	1.13	0.86	0.896	1.16
NCI-H358	0.755	0.709	0.71	0.375	0.435	0.426	0.473	0.511	0.548	0.686	0.796	0.584	0.241	0.289	0.376	0.352	0.979	0.918	0.927	0.81
NCI-H441	0.879	0.824	0.936	0.77	0.711	0.636	0.639	0.734	0.439	0.64	0.699	0.5	0.388	0.329	0.382	0.382	1.07	0.969	1.07	0.921
NCI-H460	1.01	0.865	1.1	0.363	0.924	1.1	1.05	0.534	0.89	0.865	0.986	0.44	0.0294	0.0314	0.0247	0.0208	1.04	1.01	1.09	0.777
NCI-H520	0.71	0.695	0.75	0.577	0.822	0.66	0.888	0.56	1.06	0.969	1.04	0.563	0.22	0.206	0.184	0.208	1.09	1.01	1.07	0.928
NCI-H596	0.666	0.613	0.582	0.53	1.15	0.988	0.89	1.05	1.05	1.05	1.14	1.06	1.03	1.03	0.988	0.901	1.12	0.934	0.912	0.976
NCI-H647	0.541	0.593	0.602	0.414	1.28	1.01	1.05	0.871	1.09	1.13	1.5	0.851	0.12	0.114	0.211	0.203	1.11	0.808	1.17	0.768
